Data: US20200078379A1, “DEFEROXAMINE DERIVATIVES AS MEDICAMENTS” (BIOTECHNOLOGICKY USTAV AV CR, V.V.I., priority 2017, published 2020)
Like-named read-outs stand apart in the source and are kept apart here.

Tests used:
[1] = system: murine triple negative breast cancer cell line 4T1; assay: crystal violet assay, cellular viability; format: cell-based; settings: Mus musculus, 4T1, 48 hours
Procedure: (§1) Compound 1 and compound 2 were tested in their efficacy to kill malignant MCF7 cancer cells. Briefly, 10.000 cells per well were seeded in a 96-well plat on one day and the next day selected compounds were added and incubated with the cells for 48 hrs. The cells were then fixed with 4% paraformaldehyde, stained with 0.05% crystal violet, washed with PBS, and solubilized in 1% SDS. The absorbance of the plate at 595 nm was then measured, quantifying the number of viable cells.
(§2) A number of compounds of the present invention were tested for cytotoxicity towards at least some of human breast cancer cell lines (MCF7, MDA-MB-231), human fibroblast (BJ) and murine triple negative breast cancer cell line 4T1 (Table 2).

MDA-MB-231 cells [2] = assay: crystal violet assay, cellular viability; format: cell-based, human; settings: Homo sapiens, read-out: IC50 cellular viability
Procedure: as §1, §2

MCF7 cells [3] = assay: crystal violet assay, cellular viability; format: cell-based, human; settings: for IC50: MCF7, 48 h, read-out: IC50 cellular viability
Procedure: as §1, §2

MCF7 cells [4] = assay: AnnexinV/PI cell death assay; format: cell-based, human
Procedure: (§3) Briefly, cells were seeded in 12-well plate at 100,000 per well, incubated with the selected compounds for 48 hours, then floating cells were spun, adherent cells trypsinized and spun as well followed by the staining with AnnexinV-FITC and PI probes. Cells were then washed with PBS and measured via Fluorescence Activated Sorter.

non malignant cells (BJ) = assay: AnnexinV/PI cell death assay; format: cell-based
Procedure: as §3, with “To confirm such findings by an independent method, cell death-inducing potency (cytotoxic efficacy) of DFO and compound 2 have been tested via annexin V/PI staining commonly used as a measure of apoptotic/necrotic cell death. Briefly,” for “Briefly,”
We have then analyzed the percentage of death cells by the annexinV/PI staining as described in example 7. We have observed a significant potentiation in cell death induction when gallium was combined with compound 2 (Table 14)

[5] = system: non malignant cells (BJ), human fibroblast; assay: crystal violet assay, cellular viability; format: cell-based
Procedure: as §1, §2

MCF7 cells [6] = assay: cellular proliferation in real time, Xcelligence technology; format: cell-based
Procedure: The ability of compound 2 to affect the proliferation and cell death induction in real time was monitored by the Xcelligence technology that detects changes in electrical impedance related to the cell number. In brief, special 16-well e-plates containing gold electrodes were filled with medium, blank values were recorded, and then 5.000 cells per well were seeded in the plate and let to attach for 2 hours, followed by the addition of compounds. The electrical impedance was then monitored over time in real-time every 15 minutes. In this case a line is drawn that reflects the cell number over time. […] We have seen a clear inhibition of proliferation with compound 2 at 1 μM, complete block of proliferation at 2 μM concentration, while the cytotoxic effect is seen at 5 μM (Table 9).

MDA-MB-231 cells [7] = assay: AnnexinV/PI cell death assay; format: cell-based, human; settings: MDA-MB-231, 200 μM, 48 hrs
Procedure: as §3, with “To confirm such findings by an independent method, cell death-inducing potency (cytotoxic efficacy) of DFO and compound 2 have been tested via annexin V/PI staining commonly used as a measure of apoptotic/necrotic cell death. Briefly,” for “Briefly,”

T47D cells [8] = assay: AnnexinV/PI cell death assay; format: cell-based; settings: 200 μM, 48 hrs
Procedure: as §3, with “To confirm such findings by an independent method, cell death-inducing potency (cytotoxic efficacy) of DFO and compound 2 have been tested via annexin V/PI staining commonly used as a measure of apoptotic/necrotic cell death. Briefly,” for “Briefly,”
Since compound 2 is an iron chelator, we have evaluated the effect of pretreating compound 2 with iron. at a 1:1 ratio by using the Annexin V/PI staining as in example 7.

T47D cells [9] = assay: crystal violet assay, cellular viability; format: cell-based; settings: 48 hours
BT474 cells = assay: AnnexinV/PI cell death assay; format: cell-based; settings: BT474, 200 μM, 48 hrs
Procedure: as §3, with “To confirm such findings by an independent method, cell death-inducing potency (cytotoxic efficacy) of DFO and compound 2 have been tested via annexin V/PI staining commonly used as a measure of apoptotic/necrotic cell death. Briefly,” for “Briefly,”

BT549 cells = assay: AnnexinV/PI cell death assay; format: cell-based; settings: BT549, 200 μM, 48 hrs
Procedure: as §3, with “To confirm such findings by an independent method, cell death-inducing potency (cytotoxic efficacy) of DFO and compound 2 have been tested via annexin V/PI staining commonly used as a measure of apoptotic/necrotic cell death. Briefly,” for “Briefly,”

[10] = MDA-MB-231, 48 hours, crystal violet

For `CC(=O)N(O)CCCCCNC(=O)CCC(=O)N(O)CCCCCNC(=O)CCC(=O)N(O)CCCCCN(CCCCCCCCCCCC[P+](c1ccccc1)(c1ccccc1)c1ccccc1)CCCCCCCCCCCC[P+](c1ccccc1)(c1ccccc1)c1ccccc1` [Compound 8, Triphenyl(3,14,25-trihydroxy-2,10,13,21,24-pentaoxo-31-(12-(triphenylphosphonio)dodecyl)-3,9,14,20,25,31-hexaazatritetracontan-31-ium-43-yl)phosphonium trichloride], the IC50 [1] was 1200 nM, the IC50 (MDA-MB-231 cells [2]; MDA-MB-231, 48 h) was 600 nM and the IC50 (MCF7 cells [3]; Homo sapiens, crystal violet) was 500 nM.

`CCCC[P+](CCCC)(CCCC)CCCCCCCCCCN(CCCCCCCCCC[P+](CCCC)(CCCC)CCCC)CCCCCN(O)C(=O)CCC(=O)NCCCCCN(O)C(=O)CCC(=O)NCCCCCN(O)C(C)=O` [Compound 6, 42,42-dibutyl-3,14,25-trihydroxy-2,10,13,21,24-pentaoxo-31-(10-(tributylphosphonio)decyl)-3,9,14,20,25,31-hexaaza-42-phosphahexatetracontane-31,42-diium trichloride] gave an IC50 [1] of 4900 nM, an IC50 (MDA-MB-231 cells [2]; [10]) of 2800 nM and an IC50 (MCF7 cells [3]; Homo sapiens, crystal violet) of 3000 nM.

In the case of `[Cl][Ga]([Cl])[Cl]` [GaCl3, gallium chloride, reference compound], the “percentage of death cells by annexinV/PI staining” value (MCF7 cells [4]; MCF7, ratio Ga:compound 2 1:0, 5 μM gallium salt alone) is reported as 5.9 (2.5) and the “percentage of death cells by annexinV/PI staining” value (non malignant cells (BJ); ratio Ga:compound 2 1:0, 5 μM gallium salt alone) is reported as 2.4 (0.1).

`CC(=O)N(O)CCCCCNC(=O)CCC(=O)N(O)CCCCCNC(=O)CCC(=O)N(O)CCCCCN(CCCCCCCCCC[P+](Cc1ccccc1)(Cc1ccccc1)Cc1ccccc1)CCCCCCCCCC[P+](Cc1ccccc1)(Cc1ccccc1)Cc1ccccc1` [Compound 9, 2,2-dibenzyl-19,30,41-trihydroxy-20,23,31,34,42-pentaoxo-1-phenyl-13410-(tribenzylphosphonio)decyl)-13,19,24,30,35,41-hexaaza-2-phosphatritetracontane-2,13-diium trichloride] gave an IC50 [1] of 1800 nM, an IC50 (MDA-MB-231 cells [2]; MDA-MB-231, 48 h) of 800 nM and an IC50 (MCF7 cells [3]; Homo sapiens, crystal violet) of 900 nM.

Work on `CCCCCCCC[P+](CCCCCCCC)(CCCCCCCC)CCCCCCCCCCN(CCCCCCCCCC[P+](CCCCCCCC)(CCCCCCCC)CCCCCCCC)CCCCCN(O)C(=O)CCC(=O)NCCCCCN(O)C(=O)CCC(=O)NCCCCCN(O)C(C)=O` [Compound 10, 3,14,25-trihydroxy-42,42-dioctyl-2,10,13,21,24-pentaoxo-31-(10-(trioctylphosphonio)decyl)-3,9,14,20,25,31-hexaaza-42-phosphapentacontane-31,42-diium trichloride] yielded an IC50 [1] of 1300 nM, an IC50 (MDA-MB-231 cells [2]; [10]) of 700 nM and an IC50 (MCF7 cells [3]; Homo sapiens, crystal violet) of 800 nM.

For `CC(=O)N(O)CCCCCNC(=O)CCC(=O)N(O)CCCCCNC(=O)CCC(=O)N(O)CCCCCN` [DFO, deferoxamine], the “Selectivity index (IC50 non-malignant/IC50 malignant)” value ([5]; BJ vs BJ (reference)) was 1, the IC50 ([5]; Homo sapiens, Fibroblast, BJ non malignant, 48 hours, crystal violet) was 219000 nM and the “slope of the line (relative number of cells in relation to time)” value (MCF7 cells [6]; MCF7, 0-15 h, 1 μM) was 1.02. The “slope of the line (relative number of cells in relation to time)” value (MCF7 cells [6]; MCF7, 0-15 h, 2 μM) was 1.12, the “slope of the line (relative number of cells in relation to time)” value (MCF7 cells [6]; MCF7, 0-15 h, 5 μM) was 1.01 and the “slope of the line (relative number of cells in relation to time)” value (MCF7 cells [6]; MCF7, 0-36 h, 1 μM) was 1.31. The “slope of the line (relative number of cells in relation to time)” value (MCF7 cells [6]; MCF7, 0-36 h, 2 μM) was 1.53, the “slope of the line (relative number of cells in relation to time)” value (MCF7 cells [6]; MCF7, 0-36 h, 5 μM) was 0.50 and the “mean percentage of dead cells (AnnexinV/PI)” value (“mean percentage of dead cells” for short) (MCF7 cells [4]; MCF7, 200 μM, 48 hrs) was 45.0%. For the same compound, the “mean percentage of dead cells” value (MDA-MB-231 cells [7]) was 22.4%, the “mean percentage of dead cells” value (T47D cells [8]) was 14.1 (7.2) % and the “Selectivity index (IC50 non-malignant/IC50 malignant)” value (T47D cells [9]; BJ vs T47D) was 0.80. For the same compound, the IC50 (T47D cells [9]; Homo sapiens, T47D, crystal violet, read-out: IC50 cellular viability) was 272000 nM, the “Selectivity index (IC50 non-malignant/IC50 malignant)” value (MCF7 cells [3]; BJ vs MCF7, 48 hours) was 1.72 and the viability at 2 µM (MCF7 cells [3]; Homo sapiens, MCF7, 2 μM, 48 hrs, crystal violet, read-out: mean percentage of viable cells compared to non-treated controls) was 92%. For the same compound, the viability at 5 µM (MCF7 cells [3]; Homo sapiens, MCF7, 5 μM, 48 hrs, crystal violet, read-out: mean percentage of viable cells compared to non-treated controls) was 95.9%, the viability at 10 µM (MCF7 cells [3]; Homo sapiens, MCF7, 10 μM, 48 hrs, crystal violet, read-out: mean percentage of viable cells compared to non-treated controls) was 92.2% and the “mean percentage of dead cells” value (BT474 cells) was 19.2%. The “mean percentage of dead cells” value (BT549 cells) was 18.3% and the “mean percentage of dead cells” value (non malignant cells (BJ); 200 μM, 48 hrs) was 10.5%.

`CC(=O)N(O)CCCCCNC(=O)CCC(=O)N(O)CCCCCNC(=O)CCC(=O)N(O)CCCCCN(CCCCCCCCCC[P+](C1CCCCC1)(C1CCCCC1)C1CCCCC1)CCCCCCCCCC[P+](C1CCCCC1)(C1CCCCC1)C1CCCCC1` [Compound 4, Tricyclohexyl(3,14,25-trihydroxy-2,10,13,21,24-pentaoxo-31-(10-(tricyclohexylphosphonio)decyl)-3,9,14,20,25,31-hexaazahentetracontan-31-ium-41-yl) phosphonium trichloride] was tested, and the IC50 [1] was 1800 nM, the IC50 (MDA-MB-231 cells [2]; MDA-MB-231, 48 h) was 1300 nM and the IC50 (MCF7 cells [3]; Homo sapiens, crystal violet) was 700 nM.
